# Data as given in the supplement of paper PMC8837787.
# System: Saccharomyces cerevisiae ABC16-Green Monster
# Assay: growth inhibition at single dose (up to 150 µM), below the 70% cut-off for dose-response; higher = more potent
# Conditions: 18 h; 30 °C; YPD
# Method in brief: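 Drug-sensitive S. cerevisiae ABC16-Green Monster cells were grown overnight in YPD at 30 °C and diluted to log phase (OD600 0.1–0.2). Each library compound was added at one dose of 150 µM to 200 µl culture per well in 96-well plates, in biological duplicates, with untreated cultures alongside. OD600 was read at 0 h and after 18 h at 30 °C. The value is percent growth inhibition; compounds below 70% in both replicates were not taken to dose-response.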
row,SMILES,growth inhibition at single dose
1,COc1ccc(C(=O)NC(c2ccccc2Cl)c2cc(Cl)c3cccnc3c2O)cc1 (stereo not drawn),< 70%
2,COc1ccccc1N1CCN(C(CNS(=O)(=O)c2ccc(Cl)cc2)c2cccnc2)CC1 (stereo not drawn),< 70%
3,Oc1ccc(Cl)cc1CNc1nc2ccccc2[nH]1,< 70%
4,CN1CCCN(C(=O)CCNC(=O)/C=C/c2ccco2)c2nc3ccccc3nc21,< 70%
5,CNc1snc(C)c1C(=O)OCCOc1ccccc1C(C)=O,< 70%
6,COc1ccc(CN2CCCC(C(=O)c3ccc(C(F)(F)F)cc3)C2)c(O)c1 (stereo not drawn),< 70%
7,O=C(NCC1Cc2cccc(-c3ccncc3)c2O1)c1csc2c1CCCC2 (stereo not drawn),< 70%
8,Cc1ccc(-c2nc3ccccc3o2)cc1NCc1cc(Cc2ccccc2)ccc1O,< 70%
9,O=C1N/C(=N\C2CCCC2)S/C1=C\c1ccc2c(c1)OCCO2,< 70%
10,C=CC12CCN(CC1)C(C(O)c1ccnc3ccc(OC)cc13)C2 (stereo not drawn),< 70%
11,Cc1ccc(C)c(Cn2c(N3CCC(C(=O)NCc4cccs4)CC3)nc3ccccc32)c1,< 70%
12,Cc1cnc(N2CCN[C@@H](Cc3ccccc3)C2)nc1Oc1ccc(-n2ccnc2)cc1,< 70%
13,Cc1cc(-c2nc(=O)c3ccccc3[nH]2)c(C)n1CC(C)C,< 70%
14,Cc1cc(C(=O)Oc2ccccc2C(N)=O)c(C)n1Cc1ccco1,< 70%
15,Cc1cc(C)n(-c2nc(-c3ccccc3)cc(N(C)CCO)n2)n1,< 70%
16,CCOC(=O)c1sc2ncn(-n3c(C)ccc3C)c(=O)c2c1C,< 70%
17,Nc1nn(C(=O)c2csc3ccccc23)c2ccccc12,< 70%
18,Cc1cc(NC(=O)c2ccc(S(=O)(=O)N(Cc3ccccc3)C(C)C)cc2)no1,< 70%
19,OC1CCC(Nc2nn3cc(-c4ccccc4)nc3s2)CC1 (stereo not drawn),< 70%
20,COc1ccc(-c2cc3c(SCC(=O)Nc4cc(C(F)(F)F)ccc4Cl)nccn3n2)cc1,< 70%
21,CNc1snc(C)c1C(=O)OCc1cc(C(=O)OC)c(C)o1,< 70%
22,Cc1ccc(-c2cc3nc4c(c(O)n3n2)CCCC4)cc1,< 70%
23,Cn1ccnc1Sc1ncnc2sccc12,< 70%

row,SMILES,growth inhibition at single dose
1,Nc1c(C(=O)N2CCOCC2)sc2nc3c(cc12)CCCCC3,< 70%
2,CCOC(=O)c1nn(CCc2ccccc2)c2c1CN(C(=O)c1cc(C)n[nH]1)CC2,< 70%
3,COc1cccc(N(C)S(=O)(=O)c2cccc3cc(C)cnc23)n1,< 70%
4,O=c1ccc(-c2nc3c4c5c(sc4ncn3n2)CCCCC5)n[nH]1,< 70%
5,CC(C)CCNCC(O)Cn1c2ccccc2c2ccccc21 (stereo not drawn),< 70%
6,O=C(Nc1ccc(N2CCCC2)cn1)c1cc(Cl)ccn1,< 70%
7,CCOc1ccc2cc(-c3nn(C(C)(C)C)c(N)c3C(N)=O)cnc2c1,< 70%
8,N=C1NC(=O)C(Cc2ccc(OC(F)(F)F)cc2)S1 (stereo not drawn),< 70%
9,CN(C)c1cc(CNC(=O)c2cc3c(F)cccc3s2)ccn1,< 70%
10,CCS(=O)(=O)N(Cc1ccco1)Cc1cc2ccc(C)cc2nc1O,< 70%
11,COc1ccc(C2=NCCN2)cc1-c1cn(-c2cccc(C3=NCCN3)c2)nn1,< 70%
12,CCCn1c(=N)c(C(=O)NC2CCCCC2)cc2c(=O)n3cccc(C)c3nc21,< 70%
13,Cc1nc(C(=O)N2CCc3c(c(C(=O)NC4CCCC4)nn3CC(C)C)C2)cs1,< 70%
14,CCCCn1nc(C)c(C(=O)Nc2nc3ccccc3[nH]2)c1Cl,< 70%
15,CCOC(=O)C1=C(c2ccccc2)N=c2sc(=Cc3cc(C)n(-c4ccc(F)cc4)c3C)c(=O)n2C1c1cccc(OC)c1OC (stereo not drawn),< 70%
16,Cc1cc(C)c2c(C)c(C(=O)Nc3nc4ccccc4s3)sc2n1,< 70%
17,Cc1c(C)c(C)c(S(=O)(=O)Nc2ccc3c[nH]nc3c2)c(C)c1C,< 70%
18,CNC(=O)c1cc(S(=O)(=O)N2CCN(c3ccccn3)CC2)cs1,< 70%
19,Cn1c(N)c(C(=O)COC(=O)C2(c3ccc(Cl)cc3)CCCC2)c(=O)n(C)c1=O,< 70%
20,COc1ccc(NC2=NC(=O)/C(=C/c3cc(C)n(-c4cccc(Cl)c4Cl)c3C)S2)cc1,< 70%
21,c1ccc2cc(OCCNc3ncnc4sccc34)ccc2c1,< 70%
22,Cc1cccn2c(=O)cc(CN3C(=O)NC(C)(c4ccc(F)cc4)C3=O)nc12 (stereo not drawn),< 70%
23,Cc1ccc(-c2cnn3c(N4CCCC4)cc(C)nc23)cc1,< 70%

row,SMILES,growth inhibition at single dose
1,O=C(Nc1ccccc1O)c1ccc(-c2ccc(Cl)cc2Cl)o1,< 70%
2,c1ccc2sc(-c3nc4ccccc4s3)nc2c1,< 70%
3,CC(=O)NC[C@H]1CN(c2ccc(N3CCSCC3)c(F)c2)C(=O)O1,< 70%
4,CCOC(=O)CC(=O)CSc1nnc(-c2ccccc2Cl)n1-c1ccccc1F,< 70%
5,COc1cc2ncnc(NC3CCN(Cc4ccccc4)CC3)c2cc1OC,< 70%
6,CN(CC(=O)Nc1ccccc1N1CCCC1)Cc1ccc2ccccc2c1,< 70%
7,CN(C)CCNC(=O)N1CCCN(c2ncnc3cc(-c4ccccc4)sc23)CC1,< 70%
8,COc1ccc([N+](=O)[O-])cc1C(=O)Nc1nc2c(s1)CCCCC2,< 70%
9,O=C(NCc1ccco1)C1CCN(S(=O)(=O)c2ccc(Br)cc2)CC1,< 70%
10,COc1ccc(-c2cncc3ccc(C(=O)NCCCn4ccnc4)nc23)cc1,< 70%
11,CCc1c(C(=O)Nc2ccn(CCc3ccccn3)n2)cnn1C(C)(C)C,< 70%
12,COc1ccc2nc(N)nc(C)c2c1,< 70%
13,O=C(Nc1nc2ccc(OC(F)(F)F)cc2s1)c1cnccn1,< 70%
14,CCOC(=O)C1=CN(C)C=C(C(=O)OCC)C1c1cc(Br)c(OCC)c(OC)c1,< 70%
15,Cc1ccc(C(=O)Nc2ccc(S(=O)(=O)O)c3cc(S(=O)(=O)O)cc(S(=O)(=O)O)c23)cc1NC(=O)c1cccc(NC(=O)Nc2cccc(C(=O)Nc3cc(C(=O)Nc4ccc(S(=O)(=O)O)c5cc(S(=O)(=O)O)cc(S(=O)(=O)O)c45)ccc3C)c2)c1,< 70%
16,CCN(CC(=O)Nc1ccccc1-c1ccccc1)Cc1nc(=O)c2ccccc2[nH]1,< 70%
17,Clc1ccc(CN2CCN(C3=NCCN3)CC2)cc1Cl,< 70%
18,O=C(CCC1CCCCC1)Nc1cccc(-c2nnc(-c3ccco3)o2)c1,< 70%
19,N#Cc1nc(-c2ccccc2F)oc1NCCc1ccccc1,< 70%
20,Cc1cc([N+](=O)[O-])cc(S(=O)(=O)N(Cc2ccc(C(=O)NC3CC3)cc2)C2CC2)c1C,< 70%
21,CC(C)c1ccc(CNCC(O)c2ccccc2)cc1 (stereo not drawn),< 70%
22,COc1ccc(CNC2CCN(c3ccc(NC(=O)c4cccc(Cl)c4)cc3)CC2)cc1OC,< 70%
